Activity calls are given as the source filed them.
What was measured:
Interleukin-8 = molecular target: T1, Interleukin-8 (Homo sapiens, UniProt P10145); experiment: Dose Response confirmation of uHTS small molecule hits for cystic fibrosis induced NFkb Inhibitors in a PAF-induced IL8 counterscreen.; assay type: functional; conditions: read-out: IC50_Mean
T1 sequence (P10145 whole entry): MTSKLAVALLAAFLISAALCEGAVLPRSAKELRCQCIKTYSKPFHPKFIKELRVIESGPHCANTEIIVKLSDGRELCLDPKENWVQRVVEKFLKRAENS

[1] = molecular target: T2, Corticotropin-releasing factor receptor 2/Corticotropin-releasing factor-binding protein (Homo sapiens, UniProt P24387+Q13324); experiment: Dose Response confirmation of uHTS hits for small molecule antagonists of the CRF-binding protein and CRF-R2 receptor complex.; assay type: functional; conditions: read-out: IC50_Mean
T2 sequence (Q13324 whole entry): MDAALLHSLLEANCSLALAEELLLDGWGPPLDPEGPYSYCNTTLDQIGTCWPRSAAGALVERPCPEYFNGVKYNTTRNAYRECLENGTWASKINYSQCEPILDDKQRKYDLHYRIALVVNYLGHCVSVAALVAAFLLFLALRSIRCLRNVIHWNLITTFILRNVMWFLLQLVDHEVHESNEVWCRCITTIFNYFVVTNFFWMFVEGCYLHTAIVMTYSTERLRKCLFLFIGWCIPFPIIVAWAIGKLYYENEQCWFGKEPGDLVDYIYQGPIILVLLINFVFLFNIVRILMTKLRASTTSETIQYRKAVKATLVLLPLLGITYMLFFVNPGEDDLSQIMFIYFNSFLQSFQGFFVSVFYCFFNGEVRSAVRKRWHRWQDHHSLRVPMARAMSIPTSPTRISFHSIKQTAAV
T2 sequence (P24387 whole entry): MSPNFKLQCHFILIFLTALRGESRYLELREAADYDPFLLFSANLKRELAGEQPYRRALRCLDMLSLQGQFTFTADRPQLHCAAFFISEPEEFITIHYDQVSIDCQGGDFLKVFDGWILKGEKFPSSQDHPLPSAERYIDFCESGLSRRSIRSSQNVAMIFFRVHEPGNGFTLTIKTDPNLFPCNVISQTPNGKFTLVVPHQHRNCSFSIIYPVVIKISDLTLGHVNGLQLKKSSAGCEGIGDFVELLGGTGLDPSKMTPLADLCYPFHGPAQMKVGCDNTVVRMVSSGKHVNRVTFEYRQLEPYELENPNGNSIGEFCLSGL

[2] = molecular target: T2, Corticotropin-releasing factor receptor 2/Corticotropin-releasing factor-binding protein; experiment: activators of CRF receptor 2 with binding protein – uHTS hits, confirmation (AID 602473); assay type: functional; conditions: read-out: EC50_Mean
[3] = CRF-BP/CRF-R2 complex antagonists, dose response, cell-based, uHTS hits, 384-well (AID 651639); assay type: functional, Homo sapiens; conditions: read-out: IC50_Mean
[4] = molecular target: T3, Apoptotic protease-activating factor 1 (Homo sapiens, UniProt O14727); experiment: SAR analysis of small molecule Activators of Apaf-1 in a Fluorescent assay.; assay type: functional; conditions: read-out: EC50_Mean;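 note: caspase-3 cleavage of fluorogenic Rh110 DEVD substrate downstream of apoptosome activation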
T3 sequence (O14727 whole entry): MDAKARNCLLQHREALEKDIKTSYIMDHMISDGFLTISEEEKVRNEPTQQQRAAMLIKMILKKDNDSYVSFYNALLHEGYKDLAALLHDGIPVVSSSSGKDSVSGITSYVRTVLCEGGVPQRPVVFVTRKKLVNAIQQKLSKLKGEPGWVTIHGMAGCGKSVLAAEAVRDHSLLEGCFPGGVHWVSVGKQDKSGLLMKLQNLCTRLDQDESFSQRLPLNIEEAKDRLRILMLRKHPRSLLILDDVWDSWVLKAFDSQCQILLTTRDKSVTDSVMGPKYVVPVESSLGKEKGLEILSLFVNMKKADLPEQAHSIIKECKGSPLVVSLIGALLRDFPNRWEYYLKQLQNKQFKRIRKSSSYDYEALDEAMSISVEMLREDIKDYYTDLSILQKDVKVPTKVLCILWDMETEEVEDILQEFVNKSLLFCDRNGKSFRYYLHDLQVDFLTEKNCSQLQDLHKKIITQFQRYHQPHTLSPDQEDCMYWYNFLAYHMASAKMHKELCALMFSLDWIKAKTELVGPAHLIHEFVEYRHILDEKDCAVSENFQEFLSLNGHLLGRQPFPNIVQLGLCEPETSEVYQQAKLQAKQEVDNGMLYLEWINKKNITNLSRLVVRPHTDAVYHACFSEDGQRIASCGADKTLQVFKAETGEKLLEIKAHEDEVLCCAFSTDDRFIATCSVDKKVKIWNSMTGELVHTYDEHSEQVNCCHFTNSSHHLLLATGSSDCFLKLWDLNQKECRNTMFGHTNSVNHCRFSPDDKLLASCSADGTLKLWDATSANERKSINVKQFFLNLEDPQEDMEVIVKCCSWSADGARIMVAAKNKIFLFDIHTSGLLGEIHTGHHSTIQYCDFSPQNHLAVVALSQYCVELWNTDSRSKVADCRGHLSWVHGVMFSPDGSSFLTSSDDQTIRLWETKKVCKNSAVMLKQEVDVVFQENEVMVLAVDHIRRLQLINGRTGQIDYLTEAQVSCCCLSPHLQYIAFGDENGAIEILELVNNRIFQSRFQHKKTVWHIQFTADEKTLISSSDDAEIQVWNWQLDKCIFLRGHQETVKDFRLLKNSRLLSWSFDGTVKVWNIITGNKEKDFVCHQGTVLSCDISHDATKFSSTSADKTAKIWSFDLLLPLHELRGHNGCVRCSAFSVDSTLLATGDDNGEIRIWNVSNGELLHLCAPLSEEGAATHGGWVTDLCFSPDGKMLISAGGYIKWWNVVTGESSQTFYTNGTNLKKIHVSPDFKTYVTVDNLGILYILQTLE

[5] = molecular target: T4, ATP-dependent translocase ABCB1 (Homo sapiens, UniProt P08183); experiment: ABCG2 efflux pump inhibitor potency, dose response, Ig-MXP3 cells, JC-1, flow cytometry, set 2 (AID 504566); assay type: functional; conditions: read-out: EC50_MICROM_;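 note: flow cytometry median green fluorescence of retained JC-1 dye; potency of efflux pump inhibition measured as rising substrate retention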
[6] = molecular target: T4, ATP-dependent translocase ABCB1; experiment: ABCB1 efflux inhibitor potency, dose response, Jurkat-DNR cells, JC-1, flow cytometry, set 2 (AID 504569); assay type: functional; conditions: read-out: EC50_MICROM_;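 note: potency of pump inhibitors that raise cellular JC-1 green fluorescence up to the nicardipine level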
[7] = ARNT/TACC3 interaction disruptors, potency, confirmation, biochemical, AlphaScreen, cherry-picked samples (AID 651703); assay type: functional, Homo sapiens;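 note: His-tagged ARNT PAS-B domain paired with GST-TACC3 E629A dimer coactivator fragment; potency of inhibitors that break up the complex and lower AlphaScreen signal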

T4 sequence (P08183 whole entry): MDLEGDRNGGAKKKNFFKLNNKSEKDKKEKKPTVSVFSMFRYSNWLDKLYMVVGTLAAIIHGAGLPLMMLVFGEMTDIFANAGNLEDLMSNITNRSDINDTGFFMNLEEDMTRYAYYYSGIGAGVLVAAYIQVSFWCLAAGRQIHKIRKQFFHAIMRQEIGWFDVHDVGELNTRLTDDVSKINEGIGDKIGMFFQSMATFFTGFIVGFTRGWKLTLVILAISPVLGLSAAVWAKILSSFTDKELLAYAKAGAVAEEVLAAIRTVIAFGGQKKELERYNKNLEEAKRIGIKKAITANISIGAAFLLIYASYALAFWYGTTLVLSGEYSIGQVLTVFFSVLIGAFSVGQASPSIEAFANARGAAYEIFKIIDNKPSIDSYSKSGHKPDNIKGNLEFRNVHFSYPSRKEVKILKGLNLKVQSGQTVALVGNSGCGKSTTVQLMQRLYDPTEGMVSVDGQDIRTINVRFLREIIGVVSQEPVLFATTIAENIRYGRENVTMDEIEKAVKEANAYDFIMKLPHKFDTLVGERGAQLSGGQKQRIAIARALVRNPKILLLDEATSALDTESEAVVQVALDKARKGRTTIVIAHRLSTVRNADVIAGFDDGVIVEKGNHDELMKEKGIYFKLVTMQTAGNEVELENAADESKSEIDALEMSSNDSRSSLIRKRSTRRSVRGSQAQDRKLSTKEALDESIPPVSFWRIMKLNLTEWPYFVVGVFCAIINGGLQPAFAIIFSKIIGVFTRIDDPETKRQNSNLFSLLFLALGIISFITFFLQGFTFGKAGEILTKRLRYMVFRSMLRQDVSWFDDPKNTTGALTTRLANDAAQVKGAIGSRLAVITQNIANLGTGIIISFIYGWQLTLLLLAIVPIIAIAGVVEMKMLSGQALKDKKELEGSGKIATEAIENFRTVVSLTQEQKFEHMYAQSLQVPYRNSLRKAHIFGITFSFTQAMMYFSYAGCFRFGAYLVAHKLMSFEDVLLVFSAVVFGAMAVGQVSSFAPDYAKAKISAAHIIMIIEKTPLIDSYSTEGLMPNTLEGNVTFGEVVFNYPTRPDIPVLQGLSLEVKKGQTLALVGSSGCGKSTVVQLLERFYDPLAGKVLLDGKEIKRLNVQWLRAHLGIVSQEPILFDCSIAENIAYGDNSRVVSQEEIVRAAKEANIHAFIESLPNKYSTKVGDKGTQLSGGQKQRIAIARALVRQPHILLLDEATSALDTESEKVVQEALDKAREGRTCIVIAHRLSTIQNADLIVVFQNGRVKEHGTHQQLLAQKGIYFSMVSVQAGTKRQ

For `CC(C)C[C@@H](CN1CCCC1CN1C(=S)NC[C@@H]1Cc1ccc(O)cc1)N1C[C@H](Cc2ccc(O)cc2)N(CCc2ccccc2)C1=S` (stereo partly drawn), which IC50 (Interleukin-8) is on record?
The IC50 was 9.82 µM (active).

Which IC50 [1] does the source give for `CC(C)N(C(=O)[C@H]1C[C@H](CC(=O)NCCC2=CCCCC2)C(=O)N2CCc3c([nH]c4ccc(Cl)cc34)[C@]12C)C(C)C` here?
The IC50 was 3.6 µM (active).

And the EC50 [2]?
Its EC50 is > 53 µM (inactive).

What about the IC50 [3] of the same molecule?
Its IC50 is 4.28 µM (active).

With `CCOc1ccccc1NC(=O)CCS(=O)(=O)c1cc2c(cc1Cl)NC(=O)CO2` as the molecule, how does the EC50 [4] read?
The EC50 was > 100 µM (inactive).

With `O=C(Cc1ccccc1)N1CCN(c2cc(-c3ccccc3)nc3cc(-c4cccc(Cl)c4)nn23)CC1` as the molecule, how does the EC50 [5] read?
Its EC50 is 7.42 µM (active).

And the EC50 [6]?
Its EC50 is 3.62 µM (active).

For `COc1cccc(/C=N/NC(=O)CNC(=O)c2cccnc2)c1O`, which AC50 [7] is on record?
Its AC50 is 81.1 µM (active).
